Each structure is given as a SMILES string.

Holding throughout (type): in vivo
Experiment [1] concerns ICR mice. Put plainly: Hot plate test. The note with it: Mus musculus, po, latency 2.0 hours after administration, hot plate 55° C., read-out: PTE %; for change in vivo at 3 mg/kg: 3 mg/kg intragastric; for change in vivo at 1 mg/kg: 1 mg/kg intragastric; for change in vivo at 4 µmol/kg: 4 μmol/kg intragastric. Here is the method: (§1) ICR mice, 18-22 g, half of them being male and the other half being female, provided by the Department of Laboratory Animals, Peking University (License No.: SCXK (Beijing) 2016-0010).
The temperature of hot plate was adjusted to 55° C., and the responses of mouse such as licking hind feet and jumping were used as the observation indexes. The time from the placement of mice on copper plate to the appearance of the above responses was defined as latency time. The latency time was measured for three times 30 minutes before administration, and the average value thereof was used as basic threshold, or baseline latency (BL). The animals with a latency time greater than 15 s and less than 5 s were removed, and the residual mice were randomly grouped, 8 animals per group.
Vehicle control group (double-distilled water) and groups for samples to be tested (the compounds and doses thereof were shown in Table 1) were set. All drugs were dissolved in […] before administration, and given by intragastric administration. The latency time was measured 2.0 hours after administration. Percentage of Pain Threshold Elevated Rate (PTE %) of compound on mice was calculated according to the following formula:
PTE %=(latency time of test group−latency time of vehicle control group)/latency time of vehicle control group×100
Background: Hot-plate and tail-flick tests time the reaction to a heat stimulus.

Experiment [2] has as its system ICR mice. Put plainly: Acetic acid writhing test. More on the design: key to Inhibition rate (%): Symbol “—” indicates that the data obtained at this dose was not significantly different from the vehicle control group. To be noted: 0.6% acetic acid ip two hours after administration; for inhibition in vivo at 3 mg/kg / inhibition in vivo at 4 µmol/kg: Mus musculus, 2 h, read-out: Inhibition rate (%); for inhibition in vivo at 3 mg/kg: po, 3 mg/kg intragastric. On the procedure: as §1
ICR mice, half of them being male and the other half being female, were randomly grouped, 8 mice per group. Vehicle control group (double-distilled water), ibuprofen control group, and groups for samples to be tested (the compounds and doses thereof were shown in Table 2) were set. All drugs were dissolved in double-distilled water before administration, and given by intragastric administration at predetermined doses. Two hours after the administration, the mice were intraperitoneally injected with 0.6% acetic acid solution (10 ml/kg, ip), and the number of times the mice writhed (abdomen depressed, buttock raised, body elongated) was recorded within 5-20 minutes. The inhibition rate % of compound on writhing pain in mice was calculated according to the following formula.
Inhibition rate %=(number of writhing times in vehicle control group−number of writhing times in test group)/number of writhing times in vehicle control group×100
On the technique in general: An intraperitoneal irritant provokes the stretching counted in writhing tests.

The test system of experiment [3] is ICR mice. In words: Formalin experiment. To be noted: Mus musculus, po, 2 h, 2.5% formalin two hours after administration, phase II 10-60 minutes, read-out: Phase II pain inhibition rate (%); for inhibition in vivo at 9 mg/kg: 9 mg/kg intragastric; for inhibition in vivo at 1 mg/kg: 1 mg/kg intragastric; for inhibition in vivo at 4 µmol/kg: 4 μmol/kg intragastric. On the procedure:
as §1
ICR mice, half of them being male and the other half being female, were randomly grouped, 8 mice per group. Vehicle control group (double-distilled water) and groups for samples to be tested were set, in which the compounds and doses thereof were shown in Table 3. All drugs were dissolved in double-distilled water before administration, and given by intragastric administration at predetermined doses. Two hours after administration, the mice were injected with 20 ul of 2.5% formalin solution in the right hind foot, and the time (s) of licking or biting foot was recorded as an index of pain response, in which 0-5 minutes was phase I, 10-60 minutes was phase II, and the total observation time was 60 minutes. The phase II pain inhibition rate of compound in mice was calculated according to the following formula:
Inhibition rate %=(time of licking or biting foot in vehicle control group−time of licking or biting foot in test group)/time of licking or biting foot in vehicle control group×100

Experiment [4] has as its system ICR mice. In words: Xylene-induced mouse ear swelling test (Effect Example 4). More on the design: key to Inhibition rate (%): Symbol “—” indicates that the data obtained at this dose was not significantly different from the vehicle control group. The note with it: 50 uL xylene two hours after administration; for inhibition in vivo at 3 mg/kg / inhibition in vivo at 4 µmol/kg: Mus musculus, po, 2 h, read-out: Inhibition rate (%); for inhibition in vivo at 3 mg/kg: 3 mg/kg intragastric. On the procedure:
as §1
ICR mice were randomly grouped, 8 mice per group, half of them being male and the other half being female. Vehicle control group (double-distilled water) and groups for samples to be tested (the compounds and doses thereof were shown in Table 4). All drugs were dissolved in double-distilled water immediately before administration, and given by intragastric administration at predetermined doses. Two hours after administration, 50 uL of xylene was smeared evenly on the inner and outer sides of right ear of mouse. After 30 minutes, the left and right ears of mouse were cut, and circular ear pieces of the same size were punched at the same position on the left and right ears, and weighed. The ear swelling inhibition rate of compound in mice was calculated according to the formula.
Inhibition rate %=(degree of ear swelling in vehicle control group−degree of ear swelling in test group)/degree of ear swelling in vehicle control group×100

For the compound `Cc1cccc(N2CC[N+]3(CCCC3)CC2)c1` [DXL-A-10, 8-(m-tolyl)-5,8-diazaspiro[4.5]decan-5-ium bromide], the change in vivo at 3 mg/kg in the experiment on ICR mice [1] is 11.2%. Also, the inhibition in vivo at 3 mg/kg in the experiment with ICR mice [2] was found to be 29.8%; in the experiment with ICR mice [4], 27.4%. Moreover, the inhibition in vivo at 9 mg/kg with ICR mice [3] came out at 46.9%.
Taken in the same sequence, the figures for `Clc1cccc(N2CC[N+]3(CCCC3)CC2)c1` [DXL-A-05, 8-(3-chlorophenyl)-5,8-diazaspiro[4.5]decan-5-ium bromide] were 19.5%, 22.5%, 30.8% and 32.9%.
`Br.Fc1ccc(N2CC[N+]3(CCCC3)CC2)cc1` [DXL-A-16, 8-(4-fluorophenyl)-5,8-diazaspiro[4.5]decan-5-ium bromide]: the change in vivo at 1 mg/kg in the experiment with ICR mice [1] worked out at 31.4%. Besides, the “Inhibition rate (%)” value in the experiment with ICR mice [2] (1 mg/kg intragastric) and with ICR mice [4] (1 mg/kg intragastric) was “—” each time. In the experiment on ICR mice [3], the inhibition in vivo at 1 mg/kg was found to be 31.4%.
Turning to `Clc1ccc(N2CC[N+]3(CCCC3)CC2)cc1.[Br-]` [DXL-A-23, 8-(4-chlorophenyl)-5,8-diazaspiro[4.5]decan-5-ium bromide], the change in vivo at 1 mg/kg in the experiment with ICR mice [1] turned out to be 39.2%. Further, the “Inhibition rate (%)” value in the experiment on ICR mice [2] (1 mg/kg intragastric) and in the experiment on ICR mice [4] (1 mg/kg intragastric) was “—” in each case. Also, the inhibition in vivo at 1 mg/kg in the experiment with ICR mice [3] was 39.2%.
Regarding `O=[N+]([O-])c1cc(N2CC[N+]3(CCCC3)CC2)cc(C(F)(F)F)c1` [DXL-A-28, 8-(3-nitro-5-(trifluoromethyl)phenyI)-5,8-diazaspiro[4.5]decan-5-ium bromide], the change in vivo at 4 µmol/kg with ICR mice [1] came to 36%. Also, the “Inhibition rate (%)” value with ICR mice [2] (4 μmol/kg intragastric) was “—”. Further, the values for the inhibition in vivo at 4 µmol/kg with ICR mice [3] and with ICR mice [4] (4 μmol/kg intragastric) were 13.3% and 9.27%, respectively.
`Br.N#Cc1ccc(N2CC[N+]3(CCCC3)CC2)cc1` [DXL-A-19, 8-(4-cyanophenyl)-5,8-diazaspiro[4.5]decan-5-ium bromide]: the change in vivo at 1 mg/kg in the experiment on ICR mice [1] was 34.3%. The “Inhibition rate (%)” value in the experiment on ICR mice [2] (1 mg/kg intragastric) and in the experiment on ICR mice [4] (1 mg/kg intragastric) was “—” each time. Also, in the experiment with ICR mice [3], the inhibition in vivo at 1 mg/kg came to 34.3%.
As for `FC(F)(F)c1cccc(N2CC[N+]3(CCCC3)CC2)c1` [DXL-A-06, 8-(3-(trifluoromethyl)phenyl)-5,8-diazaspiro[4.5]decan-5-ium bromide], the change in vivo at 3 mg/kg in the experiment on ICR mice [1] was 16.7%. The inhibition in vivo at 3 mg/kg with ICR mice [2] came to 14%; with ICR mice [4], 45.9%. In the experiment on ICR mice [3], the inhibition in vivo at 9 mg/kg worked out at 17.6%.
As to `Cc1cc(N2CC[N+]3(CCCC3)CC2)cc([N+](=O)[O-])c1` [DXL-A-29, 8-(3-methyl-5-nitrophenyl)-5,8-diazaspiro[4.5]decan-5-ium bromide], in the experiment with ICR mice [1], the change in vivo at 4 µmol/kg worked out at 36%. Besides, the inhibition in vivo at 4 µmol/kg amounted to 76% in the experiment with ICR mice [2] (4 μmol/kg intragastric), 17.3% in the experiment on ICR mice [3] and 63.3% in the experiment on ICR mice [4] (4 μmol/kg intragastric).
Turning to `FC(F)(F)c1cc(N2CC[N+]3(CCCC3)CC2)cc(C(F)(F)F)c1` [DXL-A-27, 8-(3,5-bis(trifluoromethyl)phenyI)-5,8-diazaspiro[4.5]decan-5-ium bromide], the change in vivo at 4 µmol/kg in the experiment with ICR mice [1] is 49%. In addition, the “Inhibition rate (%)” value with ICR mice [2] (4 μmol/kg intragastric) is “—”. In addition, the inhibition in vivo at 4 µmol/kg with ICR mice [3] came out at 20.1%; in the experiment with ICR mice [4] (4 μmol/kg intragastric), 4.13%.
For the compound `N#Cc1ccc(N2CC[N+]3(CCCC3)CC2)cc1[N+](=O)[O-].[Br-]` [DXL-A-32, 8-(4-cyano-3-nitrophenyl)-5,8-diazaspiro[4.5]decan-5-ium bromide], the change in vivo at 4 µmol/kg in the experiment with ICR mice [1] came to 38%. For the same compound, in the experiment on ICR mice [2] (4 μmol/kg intragastric), the “Inhibition rate (%)” value was “—”. Further, the inhibition in vivo at 4 µmol/kg with ICR mice [3] was 2.64%; in the experiment on ICR mice [4] (4 μmol/kg intragastric) it was 20.4%.
Consider `Cc1ccc(N2CC[N+]3(CCCC3)CC2)cc1[N+](=O)[O-].[Br-]` [DXL-A-30, 8-(4-methyl-3-nitrophenyl)-5,8-diazaspiro[4.5]decan-5-ium bromide], for which the change in vivo at 4 µmol/kg in the experiment on ICR mice [1] is 21%. The inhibition in vivo at 4 µmol/kg is 41.8% in the experiment on ICR mice [2] (4 μmol/kg intragastric) and 16.9% in the experiment on ICR mice [3]. Moreover, in the experiment with ICR mice [4] (4 μmol/kg intragastric), the “Inhibition rate (%)” value is “—”.

These data come from patent US20200369674A1, “ANTI-PAIN COMPOUND AND PREPARATION METHOD THEREOF” (LUNAN PHARMACEUTICAL GROUP CORPORATION, priority 2017, published 2020).
